Laboratory results taken from patent US4548938A, “5-H-1,3,4-thiadiazolo[3,2-a]pyrimidin-5-one compounds” (Janssen Pharmaceutica N.V., priority 1985, dated 1985).
Like-named read-outs stand apart in the source and are kept apart here.

Legend:
[1] = test system: compound 48/80-induced gastric lesions; conditions: rats treated with compound 48/80; known serotonin antagonists; cited from earlier work
[2] = test system: tryptamine-induced bilateral tonic seizures; assay: tryptamine (TRY) test in rats, part of the combined APO-TRY-NOR test; format: in vivo, male Wistar rats; conditions: Rattus norvegicus, sc, 1.5 h, tryptamine 40 mg/kg i.v. at 90 min
[3] = test system: serotonin-induced contraction of rat caudal artery; assay: antagonistic activity on the effect of serotonin on the caudal artery of the rat; conditions: serotonin 40 ng/ml; minimal concentration reducing contraction amplitude to at least 50% of normal; 5 min
Method: ANTAGONISTIC ACTIVITY ON THE EFFECT OF SEROTONIN ON THE CAUDAL ARTERY OF THE RAT
Caudal arteries from fasted male rats (210-235 g) were used in the test. Two helical strips having a length of 5-6 cm and a width of 2 mm. were obtained from each artery and mounted vertically in a 100 ml organ bath containing an oxygenated Krebs-Henseleit solution. Submaximal contractions of the arterial strips were produced by adding single doses of serotonin (40 ng/ml) to the organ bath for 2 minutes with each time an interval of 10 minutes. The amplitude of the contraction was measured before and 5 minutes after adding the drug. After washing out, the agonist was added again three times in order to see whether the contraction was restored and normalized.

[4] = test system: apomorphine-induced emesis; assay: apomorphine test in dogs (APO-dog); format: in vivo; conditions: Canis lupus familiaris, sc; beagle dogs; apomorphine 0.31 mg/kg s.c. 1 hour after compound; protection from emesis
[5] = test system: norepinephrine-induced mortality; assay: norepinephrine (NOR) test in rats, part of the combined APO-TRY-NOR test; format: in vivo, male Wistar rats; conditions: Rattus norvegicus, sc, 2 h, norepinephrine 1.25 mg/kg i.v. at 120 min
Method: THE COMBINED APOMORPHINE (APO)-, TRYPTAMINE (TRY)- AND NOREPINEPHRINE (NOR) TEST IN RATS
The experimental animals used in this test were adult male Wistar rats (weight 240±10 g). After an overnight fast, the animals were treated subcutaneously (1 ml/100 g) with an aqueous solution of the compound under investigation (time=zero) and put in isolated observation cages. […] At the end of this 1 hour period (time=90 minutes) the same animals were injected intravenously with 40 mg/kg of tryptamine (TRY) and the presence of the typical tryptamine-induced bilateral tonic seizures was noted. Two hours after pretreatment (time=120 minutes) finally, the same animals were challenged with 1.25 mg/kg intravenously of norepinephrine (NOR) and possible mortality was looked for up to 60 minutes later.
The table 1 gives the ED50 -values of a number of the compounds under consideration. As used herein, the ED50 -value represents the dose which protects 50% of the animals from apomorphine-, tryptamine- or norepinephrine-induced phenomena.

[6] = test system: compound 48/80-induced lethality; assay: protection of rats from compound 48/80-induced lethality; format: in vivo, male Wistar rats; conditions: Rattus norvegicus, sc, 4 h, s.c., compound 48/80 0.5 mg/kg i.v. 1 hour after treatment, 50% protected against lethality, read-out: 48/80-test ED50
Excerpt: PROTECTION OF RATS FROM COMPOUND 48/80-INDUCED LETHALITY
Compound 48/80, a mixture of oligomers obtained by condensation of 4-methoxy-N-methyl-phenethylamine and formaldehyde has been described as a potent histamine releasing agent (Int. Arch. Allergy, 13, 336 (1958)). The protection from compound 48/80-induced lethal circulatory collapse appears to be a simple way of evaluating quantitatively the antihistaminic activity of test-compounds. Male rats of an inbred Wistar strain, weighing 240-260 g were used in the experiment. After overnight starvation the rats were transferred to conditioned laboratories (temp.=21±1° C., relative humidity=65±5%). The rats were treated subcutaneously or orally with a test compound or with the solvent (NaCl solution, 0.9%). One hour after treatment there was injected intravenously compound 48/80, freshly dissolved in water, at a dose of 0.5 mg/kg (0.2 ml/100 g of body weight). In control experiments, wherein 250 solvent-treated animals were injected with the standard dose of compound 48/80 not more than 2.8% of the animals survived after 4 hours, is therefore considered to be a safe criterion of a protective effect of drug administration.
In this connection the ED50 -values are the minimal doses of the concerned compounds, administered in the subcutaneous way, whereby 50% of the rats are protected against compound 48/80-induced lethality.

[7] = test system: apomorphine-induced phenomena: agitation and stereotypic chewing; assay: apomorphine (APO) test in rats, part of the combined APO-TRY-NOR test; format: in vivo, male Wistar rats; conditions: Rattus norvegicus, sc, 0.5 h, read-out: ED50 (APO)-rat
[8] = test system: compound 48/80-induced gastric lesions; assay: gastric lesion test: lesions induced by compound 48/80; format: in vivo; conditions: Rattus norvegicus; rats; compound 48/80; distension of the stomach completely absent in 50% of rats; read-out: gastric lesion test ED50
[9] = s.c., rats, apomorphine 1.25 mg/kg i.v. 30 min after compound

In the case of CN(C)CCCSc1ccccc1NC(=O)/C=C/c1ccccc1 [cinanserin], the “prevention of cyanosis of ears and extremities, lesions in the glandular area of the stomach and abnormal gastric distension” value (“prevention” below) [1] is given as “prevent completely”.
For Cc1nc2sccn2c(=O)c1CCN1CCC(c2c[nH]c3ccccc23)CC1 [compound 12, 6-[2-[4-(1H-indol-3-yl)-1-piperidinyl]ethyl]-7-methyl-5H-thiazolo[3,2-a]pyrimidin-5-one], the ED50 [2] was 0.08 mg/kg, the “caudal artery rat ED50” value [3] was 0.08 ng/mL and the ED50 [4] was 0.08 mg/kg. For the same compound, the ED50 [5] was 0.31 mg/kg, the ED50 [6] was 0.02 mg/kg and the ED50 [7, 9] was 0.08 mg/kg. The ED50 [8] was 0.08 mg/kg.
With Cc1nc2sc3c(n2c(=O)c1CCN1CCC(c2c[nH]c4ccccc24)CC1)CCC3 [compound 17, 7,8-dihydro-3-[2-[4-(1H-indol-3-yl)-1-piperidinyl]ethyl]-2-methyl-4H,6H-cyclopenta[4,5]thiazolo[3,2-a]-pyrimidin-4-one] the ED50 [2] was 0.16 mg/kg, the “caudal artery rat ED50” value [3] was 0.31 ng/mL and the ED50 [4] was 0.03 mg/kg. For the same compound, the ED50 [5] was 0.31 mg/kg, the ED50 [6] was 0.08 mg/kg and the ED50 [7, 9] was 0.63 mg/kg. For the same compound, the ED50 [8] was 0.31 mg/kg.
For Cc1nc2sccn2c(=O)c1CCN1CCC(c2c[nH]c3ccc(F)cc23)CC1 [compound 22, 6-[2-[4-(5-fluoro-1H-indol-3-yl)-1-piperidinyl]ethyl]-7-methyl-5H-thiazolo[3,2-a]pyrimidin-5-one], the ED50 [2] was 0.31 mg/kg, the “caudal artery rat ED50” value [3] was 1.25 ng/mL and the ED50 [4] was 0.12 mg/kg. The ED50 [5] was 1.25 mg/kg, the ED50 [6] was 1.25 mg/kg and the ED50 [7] was 1.25 mg/kg. The ED50 [8] was 0.08 mg/kg.
For Cc1nc2sc(C)c(C)n2c(=O)c1CCN1CCC(c2c[nH]c3ccccc23)CC1 [compound 25, 6-[2-[4-(1H-indol-3-yl)-1-piperidinyl]ethyl]-2,3,7-trimethyl-5H-thiazolo[3,2-a]pyrimidin-5-one], the ED50 [2] was 0.16 mg/kg, the “caudal artery rat ED50” value [3] was 0.32 ng/mL and the ED50 [4] was 0.015 mg/kg. The ED50 [5] was 0.63 mg/kg, the ED50 [6] was 0.04 mg/kg and the ED50 [7, 9] was 0.31 mg/kg. It also gave an ED50 [8] of 0.16 mg/kg.
In the case of CN1CCC(=C2c3ccccc3C=Cc3ccccc32)CC1 [cyproheptadine], the “prevention” value [1] is given as “prevent completely”.
For CN1C[C@H](CNC(=O)OCc2ccccc2)C[C@@H]2c3cccc4c3c(cn4C)C[C@H]21 [metergoline], the “prevention” value [1] is listed as “prevent completely”.
In the case of CC[C@@H](CO)NC(=O)[C@@H]1C=C2c3cccc4c3c(cn4C)C[C@H]2N(C)C1 [methysergide], the “prevention” value [1] is listed as “prevent completely”.
For CN1CCN2c3ccccc3Cc3ccccc3C2C1 (stereo not drawn) [mianserin], the “prevention” value [1] is given as “prevent completely”.
For NC(=O)C1(N2CCCCC2)CCN(CCCC(=O)c2ccc(F)cc2)CC1 [pipamperone], the “prevention” value [1] is given as “prevent completely”.
In the case of CN1CCC(=C2c3ccccc3CCc3sccc32)CC1 [pizotifen], the “prevention” value [1] is given as “prevent completely”.
For O=C(CCCN1CCC2(CC1)C(=O)NCN2c1ccccc1)c1ccc(F)cc1 [spiperone], the “prevention” value [1] is given as “prevent completely”.
